# Legend:
# Solubility test = type: physicochemical; conditions: artificial intestinal juice (phosphate buffer) with 1% DMSO, fassgf or other biorelevant, kinetic from dmso stock, artificial intestinal juice pH 6.8, 16 hours at 25° C.
# How it was run: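 A DMSO stock was added to artificial intestinal juice at pH 6.8, giving 1% DMSO. The mixture stood 16 hours at 25° C. and was vacuum-filtered. Dissolved compound in the filtrate was quantified by HPLC or LC/MS/MS using absolute calibration.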
# [1] = Metabolism stability test; type: in vitro ADME; conditions: human liver microsomes, 30 minutes, compound concentration 2 μmol/L
# Experimental: Using a commercially available pooled human hepatic microsomes, a test compound was reacted for a constant time, a remaining rate was calculated by comparing a reacted sample and an unreacted sample, thereby, a degree of metabolism in liver was assessed.
# A reaction was performed (oxidative reaction) at 37° C. for 0 minute or 30 minutes in the presence of 1 mmol/L NADPH in 0.2 mL of a buffer (50 mmol/L Tris-HCl pH 7.4, 150 mmol/L potassium chloride, 10 mmol/L magnesium chloride) containing 0.5 mg protein/mL of human liver microsomes. After the reaction, 50 μL of the reaction mixture was added to 100 μL of a methanol/acetonitrile=1/1 (v/v), mixed and centrifuged at 3000 rpm for 15 minutes. The test compound in the supernatant was quantified by LC/MS/MS, and a remaining amount of the test compound after the reaction was calculated, letting a compound amount at 0 minute reaction time to be 100%. Hydrolysis reaction was performed in the absence of NADPH and glucuronidation reaction was in the presence of 5 mM UDP-glucuronic acid in place of NADPH, followed by similar operations.
# [2] = target: human ether-a-go-go related gene (hERG) channel (Homo sapiens (Human), UniProt Q12809); experiment: hERG test (whole cell patch clamp, IKr); type: cell-based; conditions: 1 μmol/L of test compound, HEK293 cells expressing hERG
# From the text: For the purpose of assessing risk of an electrocardiogram QT interval prolongation, effects on delayed rectifier K^+ current (IKr), which plays an important role in the ventricular repolarization process, was studied using HEK293 cells expressing human ether-a-go-go related gene (hERG) channel.
# After a cell was retained at a membrane potential of −80 mV by whole cell patch clamp method using an automated patch clamp system (PatchXpress 7000A, Axon Instruments Inc.), IKr induced by depolarization pulse stimulation at +40 mV for 2 seconds and, further, repolarization pulse stimulation at −50 mV for 2 seconds was recorded. […] From the recording IKr, an absolute value of the tail peak current was measured based on the current value at the resting membrane potential using an analysis software (DataXpress ver. 1, Molecular Devices Corporation). Further, the % inhibition relative to the tail peak current before application of the test substance was calculated, and compared with the vehicle-applied group (0.1% dimethyl sulfoxide solution) to assess influence of the test substance on IKr.
# human ether-a-go-go related gene (hERG) channel, sequence (Q12809 whole entry): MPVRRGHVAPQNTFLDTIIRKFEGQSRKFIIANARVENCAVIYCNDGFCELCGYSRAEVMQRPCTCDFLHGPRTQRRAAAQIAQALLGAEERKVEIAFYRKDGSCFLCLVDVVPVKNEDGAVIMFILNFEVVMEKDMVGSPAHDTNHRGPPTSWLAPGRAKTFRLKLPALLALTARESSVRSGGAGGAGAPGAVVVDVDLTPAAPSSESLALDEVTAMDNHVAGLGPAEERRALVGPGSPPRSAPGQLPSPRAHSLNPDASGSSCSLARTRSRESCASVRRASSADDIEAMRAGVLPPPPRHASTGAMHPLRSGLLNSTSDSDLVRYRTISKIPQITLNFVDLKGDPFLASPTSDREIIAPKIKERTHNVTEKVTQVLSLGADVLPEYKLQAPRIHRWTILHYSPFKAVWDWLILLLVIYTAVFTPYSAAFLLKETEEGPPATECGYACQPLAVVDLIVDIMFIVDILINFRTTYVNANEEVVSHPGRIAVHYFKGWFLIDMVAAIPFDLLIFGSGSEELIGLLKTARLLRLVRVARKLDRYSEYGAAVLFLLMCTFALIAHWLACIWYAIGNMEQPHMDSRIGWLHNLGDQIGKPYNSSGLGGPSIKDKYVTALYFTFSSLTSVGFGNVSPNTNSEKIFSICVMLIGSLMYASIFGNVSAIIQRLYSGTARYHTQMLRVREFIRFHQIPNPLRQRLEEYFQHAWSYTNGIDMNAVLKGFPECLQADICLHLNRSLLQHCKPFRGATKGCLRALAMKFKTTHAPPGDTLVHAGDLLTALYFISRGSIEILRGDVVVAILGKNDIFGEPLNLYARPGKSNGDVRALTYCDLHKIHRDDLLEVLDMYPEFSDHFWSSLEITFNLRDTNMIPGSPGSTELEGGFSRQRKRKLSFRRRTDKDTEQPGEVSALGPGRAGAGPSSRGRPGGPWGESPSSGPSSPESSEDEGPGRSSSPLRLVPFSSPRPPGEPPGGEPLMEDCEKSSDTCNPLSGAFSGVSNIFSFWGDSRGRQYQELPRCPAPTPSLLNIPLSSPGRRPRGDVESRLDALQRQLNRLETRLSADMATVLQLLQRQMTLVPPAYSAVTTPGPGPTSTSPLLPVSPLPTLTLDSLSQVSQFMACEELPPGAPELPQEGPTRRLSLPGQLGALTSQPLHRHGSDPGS
solubility at 16 h (Solubility test) [µM],Structure (SMILES),remaining rate (metabolism stability) [1] [%],hERG % inhibition [2] [%]
> 50,Cc1c(C(=O)Nc2cccc(C(F)(F)F)c2)cc(-c2ccccc2)n1CCCN(C)C [Compound I-018],70.6,–
10.1,Cc1c(C(=O)Nc2cccc(C(F)(F)F)c2)cc(-c2ccccc2)n1CCCNS(C)(=O)=O [Compound I-026],–,11.7

Structure (SMILES),solubility at 16 h (Solubility test) [µM],remaining rate (metabolism stability) [1] [%],hERG % inhibition [2] [%]
Cc1c(C(=O)Nc2cccc(C(F)(F)F)c2)ccn1CCCN1CCOCC1 [Compound I-007],> 50,85,–

# Reference: patent publication US9340500B2, “Aromatic heterocyclic derivative having TRPV4-inhibiting activity” (SHIONOGI & CO., LTD., priority 2011, dated 2016)
